Data taken from patent US8133691B2, “Stable quantitation and detection of immune response levels with non-zero background peptides” (The Henry M. Jackson Foundation for the Advancement of …, priority 2005, dated 2012).

Key:
[1] = test system: IFN-gamma-secreting cells (PBMC); assay: Ex vivo ELISPOT, PBMC stimulated with artificial APC DYNAL beads + [MHC + peptide]; type: cell-based, human
[2] = test system: IFN-gamma-secreting cells (PBMC); assay: Ex vivo ELISPOT, PBMC stimulated with plain (non-complexed) peptide; type: cell-based, human; conditions: PBMC 3 × 10^5 cells/well
Description: The term “ELISPOT” is used herein, for purposes of the specification and claims, to mean an adaptation of ELISA in which cells are placed over antibodies or antigens attached to a plastic surface. The antigen or antibody traps the cells' secreted products, which can then be detected by using an enzyme-coupled antibody that cleaves a preferably colorless substrate to make a localized colored spot.
In another embodiment, experiments were conducted with the E75 or Telomerase peptides+HLA beads in ex vivo ELISPOT assays run in the absence of stimulation (i.e. culture medium) or with plain or non-complexed E75 or Telomerase peptides. […] These responses have been reproduced in a number of assays using peripheral blood samples from prostate and breast cancer patients. The beads need not be made by DYNAL Biotech. Another biochemical manufacturer—such as BD Biosciences, may produce them.
In another embodiment, experiments were conducted with the E75 or Telomerase peptides+HLA beads in ex vivo ELISPOT assays run with negative control peptides.

Substance	ELISPOT spots ([1]; 1 × 10^5 beads/well, PBMC 1 × 10^5 cells/well)	ELISPOT spots ([1]; 1 × 10^5 beads/well, PBMC 2 × 10^5 cells/well)	ELISPOT spots ([1]; 1 × 10^5 beads/well, PBMC 3 × 10^5 cells/well)	ELISPOT spots ([1]; 5 × 10^5 beads/well, PBMC 1 × 10^5 cells/well)	ELISPOT spots ([1]; 5 × 10^5 beads/well, PBMC 2 × 10^5 cells/well)	ELISPOT spots ([1]; 5 × 10^5 beads/well, PBMC 3 × 10^5 cells/well)	ELISPOT spots [2]
E37-ve: DYNAL beads + MHC + E37 negative control peptide (RIAWARTEL) [Peptide E37-ve]	0 spots	6 spots	20 spots	0 spots	3 spots	8 spots	
NH2-RIAWARTEL-COOH (H-RIAWARTEL-OH) [Peptide E37, negative control peptide]							1 spots
